Measurements as given in US20220054658A1, “CONJUGATES” (Transfection Holdings Limited, priority 2018, published 2022).
“Also recorded” adds a separate entry of the source.

What was measured:
[1] = system: human embryonic kidney cells (HEK293); test: Cytotoxicity against HEK293 cells (CellTitre-Glo); assay type: cell-based; details: 100 μM, HEK293, 24 hours
Experimental: A sample compound was incubated at 100 μM with human embryonic kidney cells (HEK293) in Greiner 384 cell star plates for 24 hours before adding CellTitre-Glo® (Promega), an indicator of cell viability giving a luminescent output. In this assay, compounds showing greater than 40% cytotoxicity over two test runs at 100 μM are deemed to have shown cytotoxicity.

T. brucei = test: Trypanosoma brucei testing: uptake; assay type: cell-based; details: 10-25 μM, 45 minutes, 37° C.
Staphylococcus aureus = test: Bacteria testing: uptake in Staphylococcus aureus; details: FIG. 2(g); 25 μM, 45 minutes, 37° C.
Experimental: (§1) Bacteria cultured by inoculating LB media (Thermo-Fisher) with the desired bacteria and incubating overnight at 37° C. under an atmosphere of air. The OD600 was then measured and the concentration of bacteria calculated from this. The cultures were then diluted appropriately to give a concentration of 2×10^5 cells per mL. 1 mL of this culture was placed in a 5 mL centrifuge tube then centrifuged at 13,000 rpm for 5 minutes. The supernatant was removed and replaced with 1 mL of 25 μM solution of compound in media. The cultures were incubated for 45 minutes at 37° C. The cultures were centrifuged as before, the supernatant removed and the pellet resuspended in 1 mL of PBS. The cells were washed in this manner twice more. After the final washing the pellet was resuspended in 35 μL of water and spotted onto a slide. The slide was then protected with a coverslide before the images were analysed using an Olympus UV microscope system with a Leica imaging analysis software with a FITC fluorescent filter.

Enterococcus faecalis = test: Bacteria testing: uptake in Enterococcus faecalis; details: FIG. 2(f); 25 μM, 45 minutes, 37° C.
Experimental: as §1

T. annulata = test: Theileria annulata testing: uptake; assay type: cell-based; details: 1 hour, 37° C.
Experimental: T. annulata were cultured using RPMI 1640 with 10% Albumax II (Thermo-Fisher) serum. A standard hemocytometer was used to calculate the concentration of cells in the parent culture. […] For each compound and concentration to be tested, 2 mL of the culture were centrifuged at 1,000 rpm for 5 minutes. The medium was removed before the cells were resuspended in 950 μL of complete medium containing the compound to be tested at the desired concentration. This was prepared from a 100 mM stock solution of compound in DMSO. Once the cells were resuspended they were transferred to a 5 well plate (1 mL capacity per well). They were then incubated for 1 hour at 37° C. in an atmosphere of 5% CO2 in air. After the incubations were complete the contents of each well were transferred to a 10 mL centrifuge tube. Cold RPMI 1640 (Thermofisher) or HBSS added to obtain a volume of 5 mL. The suspension was then centrifuged at 1,000 rpm and at 4° C. for 5 minutes. […] After the final washing the pellet of cells was resuspended in a minimum amount of RPMI 1640 and then spotted onto a glass slide. The slide was then covered with a cover slip and analysed using Olympus BX60 UV microscope system with a Spot RT3 camera and Spot Image software with a FITC fluorescent filter.

C. elegans = test: Conjugate uptake in C. elegans (dye and praziquantel conjugates, fluorescence microscopy); assay type: in vivo, Caenorhabditis elegans; details: for uptake: location of fluorescence in C. elegans: 50 μM
Experimental: Nematode Growth Media (NGM) plates containing C. elegans were washed with 1.0-1.5 mL of standard M9 buffer and the washes were collected in an Eppendorf tube. The liquid containing the C. elegans was then spun for 1 min at room temperature at 10,000 rpm. The supernatant was removed, and fresh M9 buffer was added (500 μL) to generate a new stock solution of M9 buffer containing the C. elegans.
A C. elegans suspension (100 μL) was added a defined amount of M9 buffer (determined by the final desired concentration of compound to be tested: 399 μL in the case of the BODIPY tagged derivatives) contained within a separate Eppendorf tube. To this was then added a 25 mM solution of the compound in DMSO (1 μL). The resulting suspension was mixed using a vortex instrument.
The resulting mixture was incubated at room temperature for 2 to 4 h. in the dark (using aluminium foil to screen the tube, which was also stored in a cabinet).
Other samples were incubated overnight. Here, OP50 bacteria (3 μL) were added to the worms for feeding purposes, and the worms were kept in the dark at 20° C.
After the incubation, the tube contents were mixed gently by hand (typically by simple rotation of the tube), so as to achieve a homogenous suspension. A sample of the suspension (250 μL) was taken and mixed with M9 buffer (500 μL). The resulting suspension was placed in a centrifuge and spun at room temperature at 10,000 rpm for 1 min. The supernatant was removed, and the washing process was repeated twice more, each time using further quantities of fresh M9 buffer (500 μL each time). After the final washing sufficient supernatant was removed so as to leave a final sample volume of approximate 30 μL.
A 1.5% agarose solution in water was pre-warmed for 60 to 90 s. in a standard household style microwave (set to Power 4). Two drops of this solution was removed and placed on a glass slide. The glass slide was covered with a second glass slide. After 1 min., the slides were slid carefully apart, with the agarose remaining on one of the slides. Onto this slide was placed an aliquot of the final C. elegans solution (15 to 20 μL). To this was added a 20 mM sodium azide solution (5 μL) to inhibit nematode mobility. Vaseline was then placed around the agarose area before replacing the second slide. The slides were not pressed together.
The nematodes were then analysed using a Zeiss Axiskop 2 Plus microscope with a Hamamatsu Orca-ER (CA 742-95) camera. The images were resolved using OpenLab on a Mac operating system.
Compounds 1-11 were evaluated after 3 h and overnight incubation at a 50 μM concentration using the general uptake protocol described for C. elegans.
In order to compare the ability of a conjugate to improve the uptake of the drug praziquantel, two praziquantel derivatives were generated. Praziquantel was tagged with a BODIPY fluorescent tag (compound 12) and incorporated into a conjugate of the invention (compound 13). Compounds 12 and 13 were evaluated at a concentration of 50 μM using the C. elegans uptake protocol described above for compounds 1-11. Microscopic readings were taken after 3, 24 and 72 h.

L. passim strain PRA-403 = test: Lotmaria passim parasite uptake test; assay type: cell-based; details: 1 μM and 100 μM, room temperature, 45 min
Experimental: 100 mM stock solutions of BODIPY derivatives were prepared with dimethylsulfoxide (DMSO). L passim strain PRA-403 (ATCC) was cultured in modified medium for C. bombi (Tognazzo et al.). The parasite culture was centrifuged, supernatant was removed and 500 μL of L passim medium with compound (final concentration 500, 100, 10 or 1 μM for BODIPY derivatives) or DMSO (0.1%) control was added. Incubated for 45 min at room temperature.
Uptake tests were performed at 1 μM and 100 μM final concentration of CJ-BODIPY derivatives. After incubation at room temperature for 45 min, fluorescence intensities were evaluated using a microplate reader.

Escherichia coli = test: Bacteria testing: uptake in Escherichia coli; details: FIG. 2(e); 25 μM, 45 minutes, 37° C.
Experimental: as §1

P. falciparum = test: Plasmodium falciparum testing: uptake by infected and non-infected red blood cells; assay type: cell-based; details: 25 μM, 45 minutes, 37° C., synchronised stage and mix-stage cultures
Experimental: Compounds 1, 5, 9, 10 and 11 were tested for uptake in both synchronised stage and mix-stage cultures at 25 μM concentrations.

B. bovis Texas strain = test: Short-term uptake test in B. bovis infected RBCs (confocal microscopy)
Experimental: The parasite culture was centrifuged and washed once with GIT medium. RBC's were pellet down, and 20 μl infected RBC mixture (10 μl packed infected RBC+10 μl GIT) was prepared. Then, 180 μl GIT medium with compound the compound to be evaluated (final concentration 25 μM for BODIPY derivatives and 100 μM for phiLOV derivatives) or DMSO (0.1%)/PBS control was added. The samples were incubated for 45 min at 37° C. (Samples were stained 1 μg/mL diluted Hoechst 33342 in GIT medium). After incubation, the samples were centrifuged and the pellet was washed with GIT medium (3×). A final solution of 50% haematocrit infected RBC mixture was transferred to slides to be observed by confocal laser microscopy (Nikon A1).
Uptake experiments were performed by incubating the parasite (˜5% Parasitized Erythrocytes (PPE)) with each derivative at 25 μM and 37° C. for 45 min. After incubation, the fluorescence intensities were calculated from confocal microscope images.
The phiLOV double mutant (R475G, K476C) was used to generate derivatives P11, P1, P8, and P3 which were tested for uptake in B. bovis Texas strain using phiLOV as a control. The derivatives and the control were incubated at 100 μM and 37° C. for 45 min. After incubation, the samples were analysed under confocal microscopy using Hoeschst 33342 (Thermofisher) as co-stain.

[2] = system: Gram-negative and Gram-positive bacteria; test: Bacteria testing: uptake in bacterial cultures; assay type: cell-based; details: 25 μM, 45 minutes, 37° C.
Theileria parva = test: Uptake in erythrocyte infected with Theileria parva (FIG. 2(b)); assay type: cell-based

SMILES | outcome in the cytotoxicity screen [1] | cytotoxicity ([1]; CellTitre-Glo, greater than 40% deemed cytotoxic) [%] | uptake in T. brucei (T. brucei) | uptake by Staphylococcus aureus (Staphylococcus aureus) | uptake by Enterococcus faecalis (Enterococcus faecalis) | uptake in T. annulata (T. annulata) | uptake: location of fluorescence in C. elegans (C. elegans; 3 h incubation) | uptake: location of fluorescence in C. elegans (C. elegans; 20 h / overnight incubation) | distribution in C. elegans (C. elegans; FIG. 2(h), fluorescence microscopy) | uptake in L. passim (fluorescence intensity, microplate reader) (L. passim strain PRA-403) | uptake by Escherichia coli (Escherichia coli) | uptake by infected and non-infected red blood cells (P. falciparum) | uptake compared to compound 1 (% less) (B. bovis Texas strain; 25 μM, 37° C., 45 min, ~5% PPE) [%] | uptake by non-infected erythrocytes (B. bovis culture) (B. bovis Texas strain; FIG. 2(a)) | uptake in bacterial cultures [2] | accumulation in Theileria parva infected erythrocyte (Theileria parva)
CC1(C)OCC(C)(C)C(C(=O)N/C=C/C(=O)NCCCCCO[Si](c2ccccc2)(c2ccccc2)C(C)(C)C)O1 (stereo not shown) | inactive in the screen | 3.7±0.6 |  |  |  |  |  |  |  |  |  |  |  |  |  | 
CC1=CC(C)=[N+]2C1=Cc1ccc(CCCn3cc(CCNC(=O)/C=C/NC(=O)[C@H](O)C(C)(C)CO)nn3)n1[B-]2(F)F [Compound 5, (R,E)-N-((((3-[4,4-Difluoro-5,7-dimethyl-4-bora-3a,4a-diaza-s-indacene-3-yl]propyl)-1H-1,2,3-triazol-4-yl)ethylamino)-3-oxoprop-1-enyl)-2,4-dihydroxy-3,3-dimethylbutanamide] |  |  | taken up by T. brucei and forms small vesicles all over the trypanosome body, whilst not accumulating neither in the lysosome nor in the nucleus, but rather in a vesicle between the flagellar pocket and the lysosome; also recorded: taken up by T. brucei and forms small vesicles all over the trypanosome body | uptake of the conjugate by the organism | uptake of the conjugate by the organism | taken up by T. annulata; also recorded: selectively accumulated within the intracellular parasite | small amounts of compound 5 were present in the gut cells, and the gut lumen of the larval stages, as well as in the pharynx, gut lumen and gut cells of adult nematodes; also recorded: not detected in the embryos | fluorescence remained in the pharynx, gut cells and gut lumen of both the larval and adult stages; also recorded: Fluorescence was also detected in the early stage of egg development, but not in the embryos | localised with the digestive track of C. elegans | relatively low uptake | uptake of the conjugate by the organism | selectively taken up by infected red blood cells; also recorded: accumulated within the parasite itself; also recorded: Non-infected erythrocytes do not take up the conjugate | 30 | Non-infected erythrocytes do not take up the conjugate | Uptake was seen both in the case of Gram-negative and Gram-positive bacteria | seen to accumulate within the parasite
